Data taken from ChEMBL document CHEMBL1139863, “Synthesis and in vitro antiprotozoal activities of dicationic 3,5-diphenylisoxazoles” (J Med Chem, 2007).
pIC50: −log10 of the molar value.

Tests used:
[1] = tested on: Trypanosoma brucei rhodesiense; experiment: Antitrypanosomal activity against Trypanosoma brucei rhodesiense; format: functional, organism-based
[2] = tested on: Plasmodium falciparum; experiment: Antiplasmodial activity against chloroquine-resistant Plasmodium falciparum K1; format: functional, organism-based
[3] = tested on: L6; experiment: Cytotoxicity against rat L6 cells; format: cell-based

CC(C)NC(=N)c1cccc(-c2cc(-c3cccc(C(=N)NC(C)C)c3)on2)c1
pIC50 [1]: 5.30
pIC50 [2]: 7.37
pIC50 [3]: < 3.74

CC(C)NC(=N)c1ccc(-c2cc(-c3ccc(C(=N)NC(C)C)cc3)on2)cc1
pIC50 [1]: 6.71
pIC50 [2]: 8.18
pIC50 [3]: < 3.75

c1cc(-c2cc(-c3ccc(C4=NCCN4)cc3)on2)ccc1C1=NCCN1
pIC50 [1]: 7.06
pIC50 [2]: 8.39
pIC50 [3]: 5.74

N=C(N)c1ccc(-c2cc(-c3ccccc3)on2)cc1
pIC50 [1]: 5.95
pIC50 [2]: < 5.48
pIC50 [3]: 4.73

COc1cc(C(=N)N)ccc1-c1cc(-c2ccc(C(=N)N)cc2)no1
pIC50 [1]: 7.97
pIC50 [2]: 8.22
pIC50 [3]: 3.91

N=C(N)c1ccc(-c2cc(-c3ccc(C(=N)N)cc3[N+](=O)[O-])no2)cc1
pIC50 [1]: 7.49
pIC50 [2]: 7.83
pIC50 [3]: 4.65

COc1cc(C(=N)N)ccc1-c1cc(-c2cccc(C(=N)N)c2)no1
pIC50 [1]: 8.19
pIC50 [2]: 8.46
pIC50 [3]: 3.75

N=C(N)c1cccc(-c2cc(-c3ccc(C(=N)N)cc3Cl)no2)c1
pIC50 [1]: 7.94
pIC50 [2]: 7.85
pIC50 [3]: 4.06

N=C(N)c1ccc(-c2cc(-c3ccc(C(=N)N)cc3[N+](=O)[O-])on2)cc1
pIC50 [1]: 7.86
pIC50 [2]: 7.83
pIC50 [3]: 4.80

N=C(N)c1ccc(-c2cc(-c3ccc(C(=N)N)cc3Cl)on2)cc1
pIC50 [1]: 7.81
pIC50 [2]: 8.10
pIC50 [3]: 4.39

c1cc(C2=NCCN2)cc(-c2cc(-c3ccc(C4=NCCN4)cc3)on2)c1
pIC50 [1]: 5.81
pIC50 [2]: 7.29
pIC50 [3]: 4.19

CC(C)NC(=N)c1ccc(-c2cc(-c3cccc(C(=N)NC(C)C)c3)on2)cc1
pIC50 [1]: 6.50
pIC50 [2]: 7.46
pIC50 [3]: < 3.73

c1cc(C2=NCCN2)cc(-c2cc(-c3ccc(C4=NCCN4)cc3)no2)c1
pIC50 [1]: 6.01
pIC50 [2]: 7.11
pIC50 [3]: 4.52

N=C(N)c1ccc(-c2cc(-c3ccc(C(=N)N)cc3Cl)no2)cc1
pIC50 [1]: 7.63
pIC50 [2]: 7.26
pIC50 [3]: 5.24

COc1cc(C(=N)N)ccc1-c1cc(-c2ccc(C(=N)N)cc2)on1
pIC50 [1]: 7.79
pIC50 [2]: 7.18
pIC50 [3]: 4.03

N=C(N)c1ccc(-c2cc(-c3cccc(C(=N)N)c3)no2)cc1
pIC50 [1]: 8.20
pIC50 [2]: 7.24
pIC50 [3]: 4.62

N=C(N)c1cccc(-c2cc(-c3ccc(C(=N)N)cc3[N+](=O)[O-])on2)c1
pIC50 [1]: 8.05
pIC50 [2]: 7.59
pIC50 [3]: 4.32

N=C(N)c1cccc(-c2cc(-c3ccc(C(=N)N)cc3Cl)on2)c1
pIC50 [1]: 8.20
pIC50 [2]: 7.73
pIC50 [3]: 4.08

CC(C)NC(=N)c1ccc(-c2cc(-c3cccc(C(=N)NC(C)C)c3)no2)cc1
pIC50 [1]: 6.31
pIC50 [2]: 7.97
pIC50 [3]: < 3.73

N=C(N)c1ccc(-c2cc(-c3ccccc3)no2)cc1
pIC50 [1]: 5.76
pIC50 [2]: < 5.48
pIC50 [3]: 4.72

N=C(N)c1ccc(-c2cc(-c3cccc(C(=N)N)c3)on2)cc1
pIC50 [1]: 8.46
pIC50 [2]: 8.60
pIC50 [3]: 4.51

COc1cc(C(=N)N)ccc1-c1cc(-c2ccc(C(=N)N)cc2OC)on1
pIC50 [1]: 7.89
pIC50 [2]: 8.21
pIC50 [3]: 4.07

N=C(N)c1ccc(-c2cc(-c3ccc(C(=N)N)cc3)on2)cc1
pIC50 [1]: 8.29
pIC50 [2]: 7.65
pIC50 [3]: 5.68

N=C(N)c1cccc(-c2cc(-c3cccc(C(=N)N)c3)on2)c1
pIC50 [1]: 7.54
pIC50 [2]: 8.04
pIC50 [3]: 3.82

N=C(N)c1cccc(-c2cc(-c3ccc(C(=N)N)cc3[N+](=O)[O-])no2)c1
pIC50 [1]: 7.71
pIC50 [2]: 7.52
pIC50 [3]: < 3.69

c1cc(C2=NCCN2)cc(-c2cc(-c3cccc(C4=NCCN4)c3)on2)c1
pIC50 [1]: 4.73
pIC50 [2]: 6.64
pIC50 [3]: 4.58

COc1cc(C(=N)N)ccc1-c1cc(-c2cccc(C(=N)N)c2)on1
pIC50 [1]: 8.23
pIC50 [2]: 8.05
pIC50 [3]: 3.87

C[C@@H]1CC[C@H]2[C@@H](C)C(=O)O[C@@H]3O[C@@]4(C)CC[C@@H]1[C@]32OO4 [ARTEMISININ]
pIC50 [2]: 8.17

N=C(N)c1ccc(-c2ccc(-c3ccc(C(=N)N)cc3)o2)cc1 [FURAMIDINE]
pIC50 [3]: 4.79

Nc1nc(N)nc(Nc2ccc([As]3SCC(CO)S3)cc2)n1 (centres undefined) [MELARSOPROL]
pIC50 [1]: 8.19
